Our source for the TGI and GI50 values is PubChem BioAssay (NCI).

SMILES strings stand for the structures.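 Results reflect a 48-hour exposure of cells in 96-well plates to compound at five concentrations. GI50: concentration for 50% inhibition of growth. Definition used: TGI = concentration required for complete inhibition of growth.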

The TGI is the concentration at which net growth stops. High values mean less potent growth arrest, low ones more potent growth arrest. Usually GI50 stands for the concentration at which growth is held to half of that of the control.

Holding throughout (experiment): DTP human tumour cell line panel, 48 h
The test system of assay [1] is UACC-257 melanoma.
In assay [2] the test system is HCT-15 colon.
Assay [3] concerns SF-295 CNS.
Assay [4] deals with M14 melanoma.
The subject of assay [5] is MALME-3M melanoma.
Assay [6] relates to SK-OV-3 ovarian.
In assay [7] the test system is SK-MEL-5 melanoma.
Assay [8] deals with A549 NSCLC.
Assay [9] concerns OVCAR-5 ovarian.

As to `Cn1nc(-c2ccccc2)c2c(/C=C/c3ccccc3)onc2c1=O`, the TGI in [1], in [2], in [3], in assay [4], in assay [5] and in [6] was above 100 µM throughout. Further, the TGI in assay [7], in assay [8] and in assay [9] was above 100 µM throughout.
For `CC1=C(C(=O)Nc2cc(F)c(F)cc2F)C(c2ccc([N+](=O)[O-])cc2)C(C(=O)Nc2cc(F)c(F)cc2F)=C(C)N1`, the total growth inhibition concentration (TGI) in assay [1], in assay [3], in assay [4], in assay [5], in [6] and in assay [7] was above 100 µM throughout. The concentration for total growth inhibition (TGI) in assay [8] and in [9] was above 100 µM throughout.
With `CCSc1c2ccccc2c(-c2nc(F)nc(F)n2)n1CCc1ccccc1`, the TGI in assay [2], in [3], in [4], in assay [5], in assay [8] and in assay [9] was above 100 µM each time.
With `COc1cccc(-c2cc(=O)c3ccccc3[nH]2)c1`, the TGI in assay [2] was above 100 µM; in [3], 14.8 µM; in assay [4] it was above 100 µM; in [5], above 100 µM; in [6] it was above 100 µM; in [7] it was above 100 µM. Further, the total growth inhibition concentration (TGI) in assay [8] and in assay [9] was above 100 µM throughout.
As for `CC1(c2ccc(Cl)cc2)C2C(=O)NC(=O)C1C(=O)NC2=O` (centres undefined), the TGI in assay [1], in assay [2], in [3], in assay [4], in [5] and in assay [6] was above 100 µM throughout. Moreover, the TGI in [7], in [8] and in [9] was above 100 µM each time.
In the case of `CCOc1ccc(NC(=O)CC2C(=O)Nc3ccccc3S2(=O)=O)cc1` (centres undefined), the TGI in assay [1], in assay [2], in assay [3], in [5], in [8] and in [9] was above 100 µM in each case.
Take `Nc1c(Cl)ncnc1NCCCNc1ncnc(Cl)c1N`: the TGI in [1], in assay [2], in assay [3], in [4], in assay [6] and in assay [7] was above 100 µM throughout. The TGI in [8] and in assay [9] was above 100 µM in each case.
`COc1ccc(/C=C/C(=O)c2sc(-n3nc(-c4ccccc4)cc3-c3ccccc3)nc2C)cc1`: the TGI in [1], in assay [2], in assay [3], in assay [4], in assay [5] and in [6] was above 100 µM each time. Further, the TGI in [7] and in [8] was above 100 µM throughout. The GI50 in [3], in assay [4], in [5], in assay [6] and in assay [8] was above 100 µM in each case.
`CC(SC(=O)Nc1ccc(N=Nc2ccccc2)cc1)C(=O)O` (centres undefined): the total growth inhibition concentration (TGI) in assay [1], in [2], in [3], in assay [4], in assay [8] and in [9] was above 100 µM throughout.
In the case of `O=C(CC(Cl)=C(Cl)Cl)c1cccc(Cl)c1Cl`, the GI50 in assay [1] is above 100 µM; in assay [2], 47.8 µM; in [4], above 100 µM; in [5], above 100 µM; in [6], above 100 µM; in assay [7], above 100 µM. The GI50 in assay [8] and in assay [9] was above 100 µM throughout. Further, the TGI in assay [1], in assay [2], in assay [4], in [5], in assay [6] and in [7] was above 100 µM throughout. The TGI in assay [8] and in assay [9] was above 100 µM in each case.
Regarding `Cc1ccc(S(=O)(=O)N/N=C(/c2nc3ccc([N+](=O)[O-])cc3[nH]c2=O)C(O)c2ccc(C(O)/C(=N\NS(=O)(=O)c3ccc(C)cc3)c3nc4ccc([N+](=O)[O-])cc4[nH]c3=O)cc2)cc1` (centres undefined), the TGI in assay [1], in [4], in assay [5], in [6], in assay [7] and in assay [8] was above 100 µM in each case. For the same compound, in assay [9], the TGI is above 100 µM.
Turning to `Nc1ncnc2c1ncn2C1CC(OCc2ccccc2[N+](=O)[O-])C(CO)O1` (centres undefined), the TGI in assay [1], in assay [2], in [3], in [4], in assay [5] and in assay [6] was above 50 µM throughout. The TGI in [8] and in assay [9] was above 50 µM throughout.
